We go through one substance from patent publication EP1792623B1, “Use of extracts and constituents of leontopodium as enhancers of cholinergic function” (Leopold-Franzens-Universität Innsbruck, priority 2005, dated 2007).

In assay [1] the test system is release of ACh in rat brain. Put plainly: ACh release in nucleus accumbens, push-pull technique, after i.c.v. application. In kind it is in vivo, Sprague-Dawley rats. The settings on record: 2 µmol i.c.v. The source says: Surgery and push-pull technique: Protocols of experiments were approved by the Bundesministerium für Wissenschaft, Forschung and Kunst, Austria, Kommission für Tierversuchsangelegenheitem. Sprague-Dawley rats (250-280 g) were anaesthetized with urethane 1.2 g/kg. i.p. The head was fixed in a stereotaxic frame and a push-pull cannula (outer tubing: o.d. 0.75 mm, i.d. 0.41 mm; inner tubing: o.d. 0.26 mm, i.d. 0.13 mm) was mounted on a microdrive. This was stereotaxically inserted through a hole in the skull into the nucleus accumbens (coordinates, mm from bregma: AP, +1.2, L, +2.5; V, -7.8) (Paxinos G. Watson H. (1998) The rat brain in stereotaxic coordinates, 4th edn. Academic Press, Sidney.). […] After 1 h of the cannula insertion the samples were collected into tubes kept at -20° C in time periods of 10 min and then stored at -80°C until acetylcholine (ACh) was determined. […]
Determination of acetylcholine (ACh): ACh content in the samples was determined by HPLC with a cation-exchanging analytical column and a post-column reactor followed by electrochemical detection (Damsma et al, 1997; Prast et al; 1998). […] The peroxide was electrochemically detected by a UniJet platin electrode (3mm) at +500 mV with an amperometric detector (BAS LC-4, Bioanalytical Systems, West Lafayette, IN, USA). […] ACh was quantified with external standards that were injected at the beginning and the end of the analysis. […]

Another assay has as its system acetylcholinesterase. Type of assay: biochemical. The settings on record: c = 100 mM, after 60 min, in comparison to medium control. On the procedure:
Experiments are carried out applying Ellman's method in a 96-well microplate assay described by Ingkaninan et al, Journal of Chromatography A 827 (2000) p. 6173 and Rhee et al, Journal of Chromatography A 915 (2001) p. 217-223. In addition to buffer A described above, a buffer containing 0.1 M NaCl and 0.02 M MgClx2.6 H2O in buffer A is used for preparing a 3 mM solution of DTNB. For the microplate assay the substrate ATCI is dissolved 15 mM in water (HPLC grade). The enzyme stock solution is diluted with buffer A to get 0.22 U/ml. In the 96-well plates, 25 µl of 15 mM ATCl, 125 µl of 3 mM DTNB, 50 µl of buffer A, and 25 µl of sample (10 mM in MeOH, respectively DMSO (dimethylsulfoxide), diluted ten times with buffer A) are added. […] […] The absorbance of the product (2-nitrobenzoate-5-mercapto thioline) is measured at 405 nm with a Chameleon 5025 (Hidex, Finland) microplate reader 0, 15, 30, 45 and 60 minutes after adding 25 µl of 0.22 U/ml acetylcholinesterase-solution to the reaction mixture. All experiments are performed 4 times (n=4) and the data are statistically processed using the SPSS 11.5 program package. Percentage of inhibition is calculated by comparing the rates for the sample to the blank (10% MeOH, resp. DMSO, in buffer).

For 14-acetoxy-isocomene, the “release of ACh in rat brain” value in assay [1] was “significantly enhance the concentration of neurotransmitters in the CNS”. For the same substance, the “inhibition (%)” value with acetylcholinesterase was 1.4 ± 8.1%.
